Values after ≈ are worked out from the molar mass of the structure shown. Read-outs that look alike come from different tables or passages of the source.
How the values were obtained:
P. falciparum Dd2 = assay: In vitro anti-malarial activity, SYBR-Green I fluorescence assay, strain Dd2; type: cell-based; details: Plasmodium falciparum, DD2, Erythrocyte, 72 h, read-out: Inhibition IC50 mean ± SD
Description: (§1) In the in vitro anti-malarial bioassay, strains of P. falciparum (chloroquine sensitive 3D7 and multidrug resistant Dd2) were kept in continuous culture in human erythrocytes in RPMI 1640 medium supplemented with 0.5% Albumax I/II and […] hypoxanthine according to the method previously described by Trager and Jensen. Synchronization of parasites was conducted using sorbitol treatment and parasitaemia was microscopically determined in Giemsa-stained smears.
(§2) In vitro anti-malarial activity assay was performed as previously described. Chloroquine and artemisinin were used as standard anti-malarial drugs, and equivalent free DQ used as a control and dissolved in dimethylsulfoxide (DMSO). Liposomes were diluted into a series of 10 µl different DQ concentrations for the in vitro assay. Each sample (10 µl) was mixed with 90 µl culture medium containing P. falciparum (0.5% parasitaemia and 2% haematocrit) and placed in 96-well microplates, which were incubated for 72 h with 5% CO2 at 37 °C. Lysis buffer (100 µl) containing 0.2 µl SYBR- Green I was then added to each well of the plate and incubated for additional 1.5 h at 37 °C. Fluorescence signal was detected at 488 nm (excitation) and 520 nm (emission) in a microplate reader (Synerfy H1, Bio Tek, USA). The intensity of fluorescence generated by the binding of SYBR-Green I to Plasmodium DNA is relative to the growth of parasites. IC50 values were derived from dose–response curves evaluated with software GraphPad.

P. falciparum 3D7 = assay: In vitro anti-malarial activity, SYBR-Green I fluorescence assay, strain 3D7; type: cell-based; details: Plasmodium falciparum, 3D7, Erythrocyte, 72 h, read-out: Inhibition IC50 mean ± SD
Description: as §1, §2

[1] = set-up: method as in PMID 21914160; details: cited from earlier work
Plasmodium parasites = test system: Plasmodium parasites; set-up: method as in PMID 28491482; details: cited from earlier work
[2] = infected human red blood cells, DQ concentration for liposomes

## C[C@@H]1CC[C@H]2[C@@H](C)C(=O)O[C@@H]3O[C@@]4(C)CC[C@@H]1[C@]32OO4 [Artemisinin]
P. falciparum Dd2; [2]
  IC50: 18.5 ± 0.5 nM
P. falciparum 3D7; [2]
  IC50: 16.4 ± 5.8 nM

## CCN(CC)CCCC(C)Nc1ccnc2cc(Cl)ccc12 (stereo not drawn) [Chloroquine]
P. falciparum Dd2
  IC50: 185 ± 16.2 nM
P. falciparum 3D7
  IC50: 23.75 ± 0.06 nM

## C[C@H]1[C@@H](O)O[C@@H]2O[C@@]3(C)CC[C@H]4[C@H](C)CC[C@@H]1[C@@]24OO3 [DHA, dihydro-artemisinin]
[1]; DHA formed from intravenous artesunate
  half-life: 30 to 60 min

## CCCCCCCCCCOc1cc2c(O)c(C(=O)OCC)cnc2cc1OCC [DQ in DMSO, Decoquinate]
Plasmodium parasites
  minimum inhibitory concentration (MIC): 5.12 ng/mL (≈ 0.0123 µM)
P. falciparum Dd2; [2]
  IC50: 1.57 ± 0.49 nM
P. falciparum 3D7; [2]
  IC50: 1.63 ± 0.13 nM

## C[C@H]1[C@H](OC(=O)CCC(=O)O)O[C@@H]2O[C@@]3(C)CC[C@H]4[C@H](C)CC[C@@H]1[C@@]24OO3 [artesunate]
[1]; intravenous artesunate, parent AS
  half-life: less than 15 min

Source: paper PMC8785525 (Malaria Journal, 2022)
